These results are taken from ChEMBL document CHEMBL4382262, “Structurally Simple, Readily Available Peptidomimetic 1-Benzyl-5-methyl-4-( n-octylamino)pyrimidin-2(1 H)-one Exhibited Efficient Cardioprotection in a Myocardial Ischemia (MI) Mouse Model” (J Med Chem, 2018).

The target of test [1] is T1, Toll-like receptor 4 (Rattus norvegicus) (UniProt Q9QX05).
T1 sequence (whole entry): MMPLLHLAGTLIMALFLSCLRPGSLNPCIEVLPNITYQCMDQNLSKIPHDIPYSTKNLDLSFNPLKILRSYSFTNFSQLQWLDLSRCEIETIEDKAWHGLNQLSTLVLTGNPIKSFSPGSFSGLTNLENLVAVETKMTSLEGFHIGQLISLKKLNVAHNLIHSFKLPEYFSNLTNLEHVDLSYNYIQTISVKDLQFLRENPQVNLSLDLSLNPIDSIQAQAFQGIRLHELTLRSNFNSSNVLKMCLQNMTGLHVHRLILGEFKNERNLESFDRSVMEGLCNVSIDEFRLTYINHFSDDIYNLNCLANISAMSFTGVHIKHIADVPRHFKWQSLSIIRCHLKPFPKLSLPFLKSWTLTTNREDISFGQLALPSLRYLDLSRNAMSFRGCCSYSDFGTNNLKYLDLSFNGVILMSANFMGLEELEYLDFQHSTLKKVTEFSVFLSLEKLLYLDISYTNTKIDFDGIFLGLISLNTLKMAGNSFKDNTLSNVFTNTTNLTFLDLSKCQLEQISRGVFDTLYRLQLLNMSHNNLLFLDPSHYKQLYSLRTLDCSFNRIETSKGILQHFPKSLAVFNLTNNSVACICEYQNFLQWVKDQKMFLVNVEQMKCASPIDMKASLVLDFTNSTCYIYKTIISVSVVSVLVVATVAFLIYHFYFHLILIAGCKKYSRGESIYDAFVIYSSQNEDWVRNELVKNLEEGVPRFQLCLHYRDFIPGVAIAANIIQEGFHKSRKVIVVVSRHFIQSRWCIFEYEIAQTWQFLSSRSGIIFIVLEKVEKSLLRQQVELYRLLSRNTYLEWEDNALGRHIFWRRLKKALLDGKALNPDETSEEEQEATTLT
Put plainly: Inhibition of TLR4 in Sprague-Dawley rat cardiomyocytes assessed as reduction in hypoxia-induced creatine kinase levels preincubated for 1 hr followed by hypoxia for 3 hrs by NADP reduction based colorimetric analysis. It is filed as cell-based.

In test [2] the target is T1, Toll-like receptor 4 (Rattus norvegicus). Put plainly: Inhibition of TLR4 in Sprague-Dawley rat cardiomyocytes assessed as reduction in hypoxia-induced LDH release preincubated for 1 hr followed by hypoxia for 3 hrs by NADH detection based colorimetric analysis. It is filed as cell-based. (In general: LDH leaks from cells whose membrane has failed.)
Test [3] has the same target. Description: Inhibition of TLR4 in Sprague-Dawley rat cardiomyocytes assessed as reduction in hypoxia-induced creatine kinase levels at 10 to 20 uM preincubated for 1 hr followed by hypoxia for 3 hrs by NADP reduction based colorimetric analysis. It is filed as cell-based.
Test [4] has the same target. Put plainly: Inhibition of TLR4 in Sprague-Dawley rat cardiomyocytes assessed as reduction in hypoxia-induced LDH release at 10 to 20 uM preincubated for 1 hr followed by hypoxia for 3 hrs by NADH detection based colorimetric analysis. It is filed as cell-based.
The target is the same in test [5]. Put plainly: Inhibition of TLR4 in Sprague-Dawley rat cardiomyocytes assessed as reduction in hypoxia-induced creatine kinase levels at 10 uM preincubated for 1 hr followed by hypoxia for 3 hrs by NADP reduction based colorimetric analysis. It is filed as cell-based.
Test [6] has the same target. Description: Inhibition of TLR4 in Sprague-Dawley rat cardiomyocytes assessed as reduction in hypoxia-induced LDH release at 10 uM preincubated for 1 hr followed by hypoxia for 3 hrs by NADH detection based colorimetric analysis. It is filed as cell-based.
A short description of test [7]: Reduction in hypoxia-induced TLR4 mRNA expression in Sprague-Dawley rat cardiomyocytes at 20 uM preincubated for 1 hr followed by hypoxia for 3 hrs by RT-qPCR analysis relative to untreated control. It is filed as functional, Cardiac muscle cell. (Quantitative PCR measures a nucleic acid by following its amplification.)
In test [8] the target is T1, Toll-like receptor 4 (Rattus norvegicus). Description: Inhibition of TLR4 in Sprague-Dawley rat cardiomyocytes assessed as reduction in hypoxia-induced IL-1beta mRNA expression at 20 uM preincubated for 1 hr followed by hypoxia for 3 hrs by RT-qPCR analysis. It is filed as cell-based.
Test [9] has the same target. Put plainly: Inhibition of TLR4 in Sprague-Dawley rat cardiomyocytes assessed as reduction in hypoxia-induced creatine kinase levels at 1 uM preincubated for 1 hr followed by hypoxia for 3 hrs by NADP reduction based colorimetric analysis. It is filed as cell-based.
Test [10] has the same target. Description: Inhibition of TLR4 in Sprague-Dawley rat cardiomyocytes assessed as reduction in hypoxia-induced LDH release at 1 uM preincubated for 1 hr followed by hypoxia for 3 hrs by NADH detection based colorimetric analysis. It is filed as cell-based.
Test [11] has the same target. Description: Inhibition of TLR4 in Sprague-Dawley rat cardiomyocytes assessed as reduction in LPS-induced creatine kinase levels at 10 to 20 uM preincubated for 1 hr followed by LPS stimulation for 5 hrs by NADH detection based colorimetric analysis. It is filed as cell-based.
For test [12] the target is unchanged. Put plainly: Inhibition of TLR4 in Sprague-Dawley rat cardiomyocytes assessed as reduction in LPS-induced LDH release at 10 to 20 uM preincubated for 1 hr followed by LPS stimulation for 5 hrs by NADH detection based colorimetric analysis. It is filed as cell-based.
For test [13] the target is unchanged. Description: Inhibition of TLR4 in Sprague Dawley rat cardiomyocytes assessed as reduction in LPS induced LDH levels by measuring NADH levels at 10 to 20 uM preincubated for 1 hr followed by induction of hypoxia measured after 5 hrs by colorimetric analysis. It is filed as cell-based.
The subject of test [14] is Macrophage. Description: Antiinflammatory activity in human macrophages assessed reduction in LPS-induced TLR4 expression at 10 uM pretreated for 30 mins followed by LPS stimulation for 4 hrs by FACS analysis. It is filed as functional, cell-based. (A flow cytometer gives signals particle by particle.)
The test system of test [15] is Macrophage. Description: Antiinflammatory activity in human macrophages assessed reduction in TLR4 expression at 10 uM after 4 hrs by FACS analysis. It is filed as functional, cell-based.
For test [16], the target named is T1, Toll-like receptor 4 (Rattus norvegicus). Description: Inhibition of TLR4 in Sprague-Dawley rat cardiomyocytes assessed as reduction in hypoxia-induced creatine kinase levels at 20 uM preincubated for 1 hr followed by hypoxia for 3 hrs by NADP reduction based colorimetric analysis. It is filed as cell-based.
Test [17] shares this target. Put plainly: Inhibition of TLR4 in Sprague-Dawley rat cardiomyocytes assessed as reduction in hypoxia-induced LDH release at 20 uM preincubated for 1 hr followed by hypoxia for 3 hrs by NADH detection based colorimetric analysis. It is filed as cell-based.

The source made the active and inactive calls. The calls are words filed in the database; no cut-off is given here. Where a SMILES comes first, the peptide text is derived from it.

One may read the inhibition as the relative decrease from the control value, in per cent. In the case of `CCCCCCCCNc1nc(=O)n(Cc2ccc(C(F)(F)F)cc2)cc1C`, the inhibition result in test [1] and in test [2] was “inactive” in each case.

In the case of `CSCC[C@H](NC(=O)[C@H](CCC(=O)O)NC(=O)[C@H](C)NC(=O)[C@H](Cc1ccccc1)NC(C)=O)C(N)=O` (Ac-FAEM-NH2), the inhibition result in test [1] and in [2] was “Dose-dependent effect” throughout. The inhibition result in test [3] and in [4] was “Active” throughout.

In the case of `CCOc1ncc(C)c(OCC)n1`, the inhibition result in [1] and in test [2] was “inactive” each time.

Take `Cc1cn(Cc2ccccc2)c(=O)nc1NCCC(C)C`: the inhibition entry in test [5] and in [6] was “Active” in each case. Besides, the “fold change (FC)” value in [7] came out at 1.5; in [8], 1.4.

Take `CC[C@H](C)[C@H](NC(C)=O)C(=O)N[C@H](C(=O)N[C@@H](Cc1ccccc1)C(=O)N[C@@H](C)C(N)=O)C(C)C` (Ac-IVFA-NH2): the inhibition entry in test [1] is “Dose-dependent effect”; in [2], “Dose-dependent effect”; in test [9], 77%; in test [10], 70%. The inhibition result in [11], in test [12] and in [13] was “Active” in each case. The result in test [14] and in [15] was Active.

With `CCCCCCCCCCNc1nc(=O)n(Cc2ccccc2)cc1C`, the inhibition result in test [1] and in test [2] was “inactive” each time.

Consider H-IVFAEMPCG-OH, for which the fold change (FC) was found to be 5.5 in [16] and 1.8 in test [17]. The inhibition entry in test [5] and in [6] was “inactive” throughout. The outcome in [14] and in test [15] was Active.

On to `CCOc1nc(=O)n(Cc2ccccc2)cc1C`, for which the inhibition entry in [1] and in test [2] was “inactive” throughout.

For the compound `CSCC[C@H](NC(=O)[C@H](CCC(=O)O)NC(C)=O)C(=O)N1CCC[C@H]1C(=O)NC(CS)C(N)=O` (single isomer, unassigned), the inhibition entry in test [1] and in test [2] was “inactive” in each case.

Take `CSCC[C@H](NC(C)=O)C(=O)N1CCC[C@H]1C(=O)NC(CS)C(=O)NCC(N)=O` (single isomer, unassigned): the inhibition result in test [1] and in [2] was “inactive” in each case.

With `CC[C@H](C)[C@H](NC(C)=O)C(=O)N[C@@H](Cc1ccccc1)C(=O)N[C@@H](C)C(N)=O` (Ac-Ile-Phe-Ala-NH2), the inhibition result in [1] and in test [2] was “inactive” each time.

`CCOc1nc(=O)n(Cc2ccc([N+](=O)[O-])cc2)cc1C`: the inhibition entry in test [1] and in test [2] was “inactive” throughout.

`CCCCCCCCNc1nc(=O)n(Cc2ccc([N+](=O)[O-])cc2)cc1C`: the inhibition result in test [1] and in test [2] was “inactive” each time.

Turning to `CC(=O)N[C@@H](Cc1ccccc1)C(=O)N[C@@H](C)C(=O)N[C@@H](CCC(=O)O)C(N)=O` (Ac-Phe-Ala-Glu-NH2), the inhibition result in test [1] and in test [2] was “inactive” throughout.

On to `CC(=O)N[C@H](C(=O)N[C@@H](Cc1ccccc1)C(=O)N[C@@H](C)C(=O)N[C@@H](CCC(=O)O)C(N)=O)C(C)C` (Ac-VFAE-NH2), for which the inhibition result in test [1] and in test [2] was “Dose-dependent effect” in each case. Also, the inhibition entry in [3], in test [4], in test [11], in [12] and in [13] was “Active” in each case. For the same compound, the result in test [14] and in [15] was Active.

Regarding `CC(=O)N[C@H](C(=O)N[C@@H](Cc1ccccc1)C(=O)N[C@@H](C)C(N)=O)C(C)C` (Ac-Val-Phe-Ala-NH2), the inhibition entry in [1] and in test [2] was “inactive” each time.

For the compound `Cc1cn(Cc2ccccc2)c(=O)nc1NC1CCCC1`, the inhibition result in [1] and in [2] was “inactive” throughout.

For `CCC(C)Nc1nc(=O)n(Cc2ccccc2)cc1C` (stereo not drawn), the inhibition entry in [1] and in test [2] was “inactive” each time.

On to `CCOc1nc(=O)n(Cc2ccc3ccccc3c2)cc1C`, for which the inhibition result in test [1] and in [2] was “inactive” throughout.

As for `CSCC[C@H](NC(=O)[C@H](CCC(=O)O)NC(=O)[C@H](C)NC(C)=O)C(=O)N1CCC[C@H]1C(N)=O` (Ac-AEMP-NH2), the inhibition entry in [1] and in test [2] was “Dose-dependent effect” in each case.

Consider `Cc1cn(Cc2ccccc2)c(=O)nc1NCc1ccccc1`, for which the inhibition entry in test [1] and in test [2] was “inactive” in each case.

In the case of `CCOc1nc(=O)n(Cc2ccc(C(F)(F)F)cc2)cc1C`, the inhibition entry in [1] and in [2] was “inactive” in each case.

Take `Cc1cn(Cc2ccccc2)c(=O)nc1NCCCN(C)C`: the inhibition result in test [1] and in test [2] was “inactive” throughout.
